# In PubChem BioAssay AID2060885 (Molecular Pharmacology Branch, DTP, NCI, 2025):
# System: NCI-H23 complex spheroids with HUVEC/MSC, viability
# Test: Anticancer human tumor NCI-H23 cell line growth inhibition [RAS];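 note: spheroids exposed to compound for 7 days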;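 for viability, T/C: 100% = DMSO vehicle control viability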
# Details: for IC50: curve of first compound; for viability, T/C: stronger effect = lower value
# Description: RAS pathway inhibitors in Combinations in Complex Spheroids
# A high-throughput screen of multi-cell type tumor spheroids was designed to identify active combinations of RAS pathway inhibitors and targeted small molecules. Complex spheroids include a stromal component modeled by human endothelial cells (HUVEC) and fibroblasts modeled by human mesenchymal stem cells (MSCs). The concentration ranges selected for each drug and investigational agent were based upon clinically achievable concentrations if the clinical Cmax of the agent was known.
# Compounds. The drugs and investigational agents: abemaciclib (NSC768073), cobimetinib (NSC768068), divarasib (GDC6063, NSC841802), docetaxel (NSC628503), GDC-1971 (RLY-1971, NSC841576), gemcitabine (NSC613327), inavolisib (NSC800729), ipatasertib (NSC767898), KB-0742 (NSC834161), MRTX-1133 (NSC836407), osimertinib (NSC779217), RMC-4630 (NSC839698), RMC-6236 (NSC851965), RMC-6291 (NSC852671), Ro-3306 (NSC812927), sapanisertib (NSC764658), SN-38 (NSC673596), staurosporine (NSC755774), SY5609 (NSC837396), and tovorafenib (DAY101, NSC766906), were obtained from the National Cancer Institute (NCI) Developmental Therapeutics Program Chemical Repository. The FDA-approved anticancer drug set is available from the NCI Developmental Therapeutics Program. […] The stock solutions were prepared in dimethyl sulfoxide (DMSO, Sigma-Aldrich, St. Louis, MO, cat. D2650) at 800-fold the tested concentration and stored at -70 degrees C prior to their use. All drugs and investigational agents were tested over a range starting from a high concentration at or near the clinical Cmax and decreasing in half-log increments. If the clinical Cmax for an agent had not been determined, the highest concentration tested was 10 microM.
# Cell Culture. All cells were maintained in an incubator at 37 degrees C and 5% CO2 with 95% humidity. The PDC lines were cultured according to standard operating procedures established by the NCI PDMR. All PDCs were thawed and cultured in Matrigel-coated flasks prepared with a working solution of 1X Ham's F-12 nutrient mix, without supplementation (Invitrogen, Waltham, MA, cat. 11765054), 100 U/mL penicillin-streptomycin (Invitrogen, cat. 15140122), and 2.5% Matrigel (Corning Inc., Corning, NY, cat. 354248) for the first three passages. The 362531-283-R-J2-PDC and 782815-120-R-J1-PDC lines were cultured in 6C/Colon 1B media, which includes advanced DMEM/F-12 (Thermo Fisher Scientific, cat. 12634028), 10 mM HEPES (Thermo Fisher Scientific, cat. 15630080), 1X GlutaMAX supplement (Thermo Fisher Scientific, cat. 35050061), 0.1 mg/mL primocin (InvivoGen, San Diego, CA, cat. ant-pm-2), 10% defined fetal bovine serum, heat inactivated (HyClone Laboratories Inc., Logan, UT, cat. SH30070.03HI), 50% L-WRN conditioned media (ATCC, cat. CRL-3276), 1.25 mM N-Acetyl-L-cysteine (Sigma-Aldrich, cat. A9165), 10 mM nicotinamide (Sigma-Aldrich, cat. N0636), 1X B-27 supplement (Thermo Fisher Scientific, cat. 17504044), 1X N-2 supplement (Thermo Fisher Scientific, cat. 17502048), 50 ng/mL human EGF (Thermo Fisher Scientific, cat. PHG0311), and 10 microM Y-27632 dihydrochloride (Tocris Bioscience, cat. 1254). The K12877-001-R-J1-PDC line was cultured in 6I media, which includes all 6C/Colon 1B media plus 10 ng/mL human FGF-10 (PeproTech, cat. 100-26), 1 ng/mL human FGF-2 (PeproTech, cat. 100-18B), 1 µM prostaglandin E2 (Tocris Bioscience, cat. 2296), […] hydrocortisone (Sigma-Aldrich, cat. H4001), and […] bovine insulin (Sigma-Aldrich, cat. I6634). The K86415-001-R-J1-PDC line was cultured in 6D media, which includes all 6C/Colon 1B media components minus the L-WRN conditioned media. The 485176-168-R4-J1-PDC was cultured in PANC media, which includes all 6C/Colon 1B media plus 100 ng/mL human FGF-10 (PeproTech, cat. 100-26), 500 nM SB-431542 (Selleckchem, cat. S1067), and 10 nM gastrin (Tocris Bioscience, cat. 3006). […]
smiles,measurement,setting,value
CC1(C)CCC(Nc2ncc(C(F)(F)F)c(-c3c[nH]c4c(P(C)(C)=O)c(C#N)ccc34)n2)CN1 (centres undefined) + C=CC(=O)N1CCN(c2nc(OCC3CCCN3C)nc3c(F)c(-c4nc(N)cc(C)c4C(F)(F)F)c(Cl)cc23)C(C)C1,IC50,second compound 0.00316 µM,1.11 nM
same,IC50,second compound 0.01 µM,< 0.949 nM
same,IC50,second compound 0.0316 µM,< 0.949 nM
same,IC50,second compound 0.1 µM,< 0.949 nM
same,IC50,second compound 0.316 µM,< 0.949 nM
same,IC50,second compound 1 µM,< 0.949 nM
same,"viability, T/C","second compound 0.00316 µM, first compound 0.000949 µM",50.9%
same,"viability, T/C","second compound 0.00316 µM, first compound 0.003 µM",41.2%
same,"viability, T/C","second compound 0.00316 µM, first compound 0.00949 µM",37%
same,"viability, T/C","second compound 0.00316 µM, first compound 0.03 µM",25.2%
same,"viability, T/C","second compound 0.00316 µM, first compound 0.0949 µM",26.9%
same,"viability, T/C","second compound 0.00316 µM, first compound 0.3 µM",27.6%
same,"viability, T/C","second compound 0.01 µM, first compound 0.000949 µM",36.5%
same,"viability, T/C","second compound 0.01 µM, first compound 0.003 µM",38.3%
same,"viability, T/C","second compound 0.01 µM, first compound 0.00949 µM",24.9%
same,"viability, T/C","second compound 0.01 µM, first compound 0.03 µM",24%
same,"viability, T/C","second compound 0.01 µM, first compound 0.0949 µM",22.5%
same,"viability, T/C","second compound 0.01 µM, first compound 0.3 µM",20%
same,"viability, T/C","second compound 0.0316 µM, first compound 0.000949 µM",33.6%
same,"viability, T/C","second compound 0.0316 µM, first compound 0.003 µM",27.2%
same,"viability, T/C","second compound 0.0316 µM, first compound 0.00949 µM",23.2%
same,"viability, T/C","second compound 0.0316 µM, first compound 0.03 µM",21%
same,"viability, T/C","second compound 0.0316 µM, first compound 0.0949 µM",21.2%
same,"viability, T/C","second compound 0.0316 µM, first compound 0.3 µM",18.2%
same,"viability, T/C","second compound 0.1 µM, first compound 0.000949 µM",29.8%
same,"viability, T/C","second compound 0.1 µM, first compound 0.003 µM",28.9%
same,"viability, T/C","second compound 0.1 µM, first compound 0.00949 µM",23.1%
same,"viability, T/C","second compound 0.1 µM, first compound 0.03 µM",21.3%
same,"viability, T/C","second compound 0.1 µM, first compound 0.0949 µM",19.2%
same,"viability, T/C","second compound 0.1 µM, first compound 0.3 µM",19.4%
same,"viability, T/C","second compound 0.316 µM, first compound 0.000949 µM",30.1%
same,"viability, T/C","second compound 0.316 µM, first compound 0.003 µM",30.4%
same,"viability, T/C","second compound 0.316 µM, first compound 0.00949 µM",24.1%
same,"viability, T/C","second compound 0.316 µM, first compound 0.03 µM",20.7%
same,"viability, T/C","second compound 0.316 µM, first compound 0.0949 µM",20.6%
same,"viability, T/C","second compound 0.316 µM, first compound 0.3 µM",19.5%
same,"viability, T/C","second compound 1 µM, first compound 0.000949 µM",29.3%
same,"viability, T/C","second compound 1 µM, first compound 0.003 µM",28.7%
same,"viability, T/C","second compound 1 µM, first compound 0.00949 µM",27.5%
same,"viability, T/C","second compound 1 µM, first compound 0.03 µM",22.4%
same,"viability, T/C","second compound 1 µM, first compound 0.0949 µM",23.6%
same,"viability, T/C","second compound 1 µM, first compound 0.3 µM",20.5%
CC1(O)CCCC1n1c(=O)c(C(F)F)cc2cnc(NC3CCN(S(C)(=O)=O)CC3)nc21 (centres undefined) + CCn1c(-c2cc(N3CCN(C)CC3)cnc2C(C)OC)c2c3cc(ccc31)-c1csc(n1)CC(NC(=O)C1CC1C)C(=O)N1CCCC(N1)C(=O)OCC(C)(C)C2,IC50,second compound 0.000949 µM,< 31.6 nM
same,IC50,second compound 0.003 µM,< 31.6 nM
same,IC50,second compound 0.00949 µM,< 31.6 nM
same,IC50,second compound 0.03 µM,< 31.6 nM
same,IC50,second compound 0.0949 µM,< 31.6 nM
same,IC50,second compound 0.3 µM,< 31.6 nM
same,"viability, T/C","second compound 0.000949 µM, first compound 0.0316 µM",33.9%
same,"viability, T/C","second compound 0.000949 µM, first compound 0.1 µM",26.3%
same,"viability, T/C","second compound 0.000949 µM, first compound 0.316 µM",17.7%
same,"viability, T/C","second compound 0.000949 µM, first compound 1 µM",25.8%
same,"viability, T/C","second compound 0.000949 µM, first compound 3.16 µM",25.5%
same,"viability, T/C","second compound 0.000949 µM, first compound 10 µM",2.68%
same,"viability, T/C","second compound 0.003 µM, first compound 0.0316 µM",31.6%
same,"viability, T/C","second compound 0.003 µM, first compound 0.1 µM",18.7%
same,"viability, T/C","second compound 0.003 µM, first compound 0.316 µM",15.9%
same,"viability, T/C","second compound 0.003 µM, first compound 1 µM",19.1%
same,"viability, T/C","second compound 0.003 µM, first compound 3.16 µM",24%
same,"viability, T/C","second compound 0.003 µM, first compound 10 µM",1.43%
same,"viability, T/C","second compound 0.00949 µM, first compound 0.0316 µM",32%
same,"viability, T/C","second compound 0.00949 µM, first compound 0.1 µM",15.7%
same,"viability, T/C","second compound 0.00949 µM, first compound 0.316 µM",13.9%
same,"viability, T/C","second compound 0.00949 µM, first compound 1 µM",17.6%
same,"viability, T/C","second compound 0.00949 µM, first compound 3.16 µM",17.9%
same,"viability, T/C","second compound 0.00949 µM, first compound 10 µM",1.78%
same,"viability, T/C","second compound 0.03 µM, first compound 0.0316 µM",20.8%
same,"viability, T/C","second compound 0.03 µM, first compound 0.1 µM",18%
same,"viability, T/C","second compound 0.03 µM, first compound 0.316 µM",15%
same,"viability, T/C","second compound 0.03 µM, first compound 1 µM",17.1%
same,"viability, T/C","second compound 0.03 µM, first compound 3.16 µM",14.5%
same,"viability, T/C","second compound 0.03 µM, first compound 10 µM",2.47%
same,"viability, T/C","second compound 0.0949 µM, first compound 0.0316 µM",17.3%
same,"viability, T/C","second compound 0.0949 µM, first compound 0.1 µM",15.4%
same,"viability, T/C","second compound 0.0949 µM, first compound 0.316 µM",13.4%
same,"viability, T/C","second compound 0.0949 µM, first compound 1 µM",14.1%
same,"viability, T/C","second compound 0.0949 µM, first compound 3.16 µM",12.1%
same,"viability, T/C","second compound 0.0949 µM, first compound 10 µM",2.66%
same,"viability, T/C","second compound 0.3 µM, first compound 0.0316 µM",18.7%
same,"viability, T/C","second compound 0.3 µM, first compound 0.1 µM",14.8%
same,"viability, T/C","second compound 0.3 µM, first compound 0.316 µM",15.1%
same,"viability, T/C","second compound 0.3 µM, first compound 1 µM",12.8%
same,"viability, T/C","second compound 0.3 µM, first compound 3.16 µM",11.8%
same,"viability, T/C","second compound 0.3 µM, first compound 10 µM",2.94%
